Results on 17 compounds are retold here after PubChem BioAssay (NCI).

Values joined by “and” are separate entries in the source; they are usually repeats but may differ in a detail not shown here. Identical values can stand only once.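 1) Cells in 96-well plates. 2) Compound, 48 h, 5 concentrations. 3) Linear interpolation between surrounding doses. 4) Unreached endpoint = highest concentration. At the GI50, growth is halved. TGI: concentration producing complete growth inhibition.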

Common to all, as to test: NCI anticancer screen, dose series, 48 h
The test system of assay [1] is SNB-19 CNS.
Assay [2] relates to T-47D breast.
Assay [3] has as its system KM12 colon.
For assay [4], the system named is ACHN renal.
The subject of assay [5] is SNB-75 CNS.
Assay [6] has as its system SK-MEL-28 melanoma.
For assay [7], the system named is UO-31 renal.
Assay [8] has as its system SN12C renal.
Assay [9] has as its system OVCAR-4 ovarian.
Assay [10] concerns RXF 393 renal.

Turning to `COc1ccc(Cn2cc3c(c2-c2cc(OC)c(OC)c(OC)c2)CCc2cnoc2-3)cc1[N+](=O)[O-]`, the GI50 in [1] was 1.87 µM; in assay [2], 3.58 µM; in assay [3] it was 0.583 µM; in [4], 2.88 µM; in assay [5], 0.849 µM; in [6] it was 3.39 µM. In addition, the GI50 was 1.26 µM in assay [7], 4.11 µM in assay [8], 3.75 µM in [9] and 1.02 µM in [10]. Further, the TGI in assay [1] was greater than 100 µM; in [2] it was greater than 100 µM; in assay [3] it was greater than 93.7 µM; in assay [4], greater than 100 µM; in assay [6], greater than 100 µM; in assay [7] it was greater than 100 µM. The figures for the TGI in assay [8], in assay [9] and in assay [10] were greater than 100 µM, greater than 100 µM and 6.22 µM, respectively.
In the case of `COC1=Nc2ccccc2S(=O)(=O)C=C1`, the TGI in assay [1] came to 56.7 µM; in assay [2] it was 14.2 µM; in assay [3], 28.4 µM; in assay [4] it was 8.83 µM; in assay [5] it was 17.5 µM; in assay [6] it was 19.9 µM. In addition, the TGI in assay [7] came out at 12.5 µM; in assay [8] it was 31.7 µM; in assay [9], 27.8 µM; in assay [10], 8.69 µM.
`C/C(Cc1ccc(Cl)cc1)=C(/c1ccc(Cl)cc1)c1ccc(OCCN(C)C)cc1`: the GI50 in assay [1] was 5.04 µM; in assay [2], 3.83 µM; in assay [3] it was 4.16 µM; in [4], 5.12 µM; in [5] it was 3.47 µM; in assay [6], 4.85 µM. The GI50 in assay [7] is 4.27 µM; in assay [8], 4.18 µM; in assay [9], 3.52 µM; in assay [10] it was 3.45 µM. For the same compound, the TGI in assay [1] is 9.62 µM; in [2], 9.92 µM; in [3] it was 8.95 µM; in assay [4] it was 9.56 µM; in [5], 7.93 µM; in assay [6] it was 9.29 µM. Further, the TGI is 8.65 µM in [7], 8.59 µM in assay [8], 7.57 µM in [9] and 7.54 µM in [10].
Take `CCCCCC/C=C\CCCCCCCCCC1=CC(=O)C=C(OC)C1=O`: the TGI in assay [1] is 20.1 µM; in [2] it was 4.86 µM; in assay [3] it was 19.2 µM; in assay [4], 11.6 µM; in assay [5] it was 8.07 µM; in assay [6], 25.7 µM. Moreover, the TGI stood at 14 µM in [7], 14.4 µM in [8], 9.22 µM in [9] and 13.1 µM in assay [10].
Regarding `O=C1CCc2c(sc3[nH]c(=S)n(Cc4ccccc4)c(=O)c23)C1`, the GI50 in assay [1] was 3.93 µM; in assay [2], 2.41 µM; in assay [3], 1.73 µM; in assay [4], 3.73 µM; in [5], 2.34 µM; in assay [6] it was 4.4 µM. Also, the GI50 in assay [7] was 2.62 µM; in assay [8], 3.25 µM; in assay [9], 3.99 µM; in assay [10], 5.81 µM. Also, the TGI is greater than 100 µM in [1]; 43.9 µM in [2]; 6.56 µM in assay [3]; greater than 100 µM in [4]; greater than 100 µM in [5]; greater than 100 µM in assay [6]. Moreover, the TGI in assay [7] was 9.7 µM; in [8], greater than 100 µM; in assay [9], greater than 100 µM; in [10] it was greater than 100 µM.
Take `C[C@H]1C(Oc2ccc(O)cc2)OC2OC3(C)CCC4[C@H](C)CCC1C24OO3` (stereo partly drawn): the GI50 is 17.1 µM in assay [1]; 2.1 µM in assay [2]; 11.4 µM in [3]; 3.97 µM in [4]; 17.6 µM in [5]; 18.4 µM in [6]. Moreover, the GI50 in [7] is 11 µM; in assay [8], 11.7 µM; in assay [9], 4.7 µM; in assay [10], 19.1 µM. Further, the TGI is 36.5 µM in assay [1]; 26.9 µM in assay [2]; greater than 82.1 µM in [3]; 19 µM in assay [4]; 39.3 µM in [5]; 39.5 µM in assay [6]. Also, the TGI in [7] was determined as 26.2 µM; in [8], 26 µM; in assay [9], 31 µM; in assay [10] it was 41.3 µM.
Consider `COc1cccc2[nH]c(-c3ccccn3)nc12`, for which the TGI in assay [1], in [2], in [3], in assay [4], in [5] and in assay [6] was greater than 100 µM each time. For the same compound, the TGI in assay [7], in assay [8], in assay [9] and in [10] was greater than 100 µM throughout.
Take `O=C1c2c(O)cc(O)cc2OC(c2ccc(O)cc2O)C1O` (stereo not drawn): the GI50 in assay [1], in assay [4], in assay [5], in assay [6], in assay [7] and in assay [8] was greater than 100 µM throughout. For the same compound, in assay [9], the GI50 is greater than 100 µM. The TGI in assay [1], in assay [2], in [3], in [4], in assay [5] and in assay [6] was greater than 100 µM in each case. Besides, the TGI in [7], in [8], in assay [9] and in [10] was greater than 100 µM in each case.
Take `COc1ccc(C(=O)COc2cccc(/C=C3\CSc4ccc(C)cc4C3=O)c2)cc1`: the GI50 in assay [1] is greater than 100 µM; in [2], 11.7 µM; in assay [3], 3.69 µM; in assay [4], 25.7 µM; in assay [5], 27.9 µM; in [6], 17.4 µM. Further, the GI50 in assay [7] was 19.9 µM; in [8], 31.8 µM; in assay [9], 7.26 µM; in [10], 19.9 µM. Further, the TGI in assay [1] is greater than 100 µM; in assay [2], greater than 100 µM; in assay [3] it was greater than 100 µM; in [4], greater than 100 µM; in assay [5], greater than 100 µM; in [6], 45.5 µM. For the same compound, the TGI is greater than 100 µM in [7], greater than 100 µM in assay [8], greater than 100 µM in assay [9] and 49 µM in assay [10].
Turning to `Nc1c(C(=O)Nc2ccccc2F)sc2nc3c(cc12)C(=O)CCC3`, the GI50 is 2.6 µM in [1]; 6.79 µM in assay [2]; 0.547 µM in assay [3]; greater than 21.5 µM in assay [4]; 1.88 µM in assay [5]; 6.33 µM in assay [6]. The GI50 in assay [7] is greater than 100 µM; in assay [8], greater than 65.3 µM; in assay [9] it was greater than 21 µM; in assay [10], 0.738 µM. In addition, the TGI was greater than 100 µM in assay [1]; greater than 100 µM in assay [2]; greater than 100 µM in assay [3]; greater than 100 µM in assay [4]; greater than 57.8 µM in assay [5]; greater than 100 µM in [6]. The TGI was greater than 100 µM in [7], greater than 100 µM in [8], greater than 100 µM in [9] and 3.82 µM in assay [10].
With `O=C(O)c1ccc2c(c1)nc(Nc1cccc(Cl)c1)c1ccncc12`, the GI50 in assay [1] was 3.04 µM and 3.46 µM; in assay [2], 2.83 µM and 1.33 µM; in assay [3], 3.43 µM and 4.43 µM; in assay [4], 3.04 µM and 3.51 µM; in assay [5], 1.44 µM and 1.67 µM; in [6] it was 3.12 µM and 3.2 µM. For the same compound, the GI50 in assay [7] is 3.79 µM and 2.86 µM; in [8], 3.88 µM and 3.71 µM; in assay [9], 2.09 µM and 4.08 µM; in assay [10], 3.23 µM and 4.17 µM. For the same compound, the TGI in [1] is greater than 100 µM; in assay [2], > 39.1 µM and 5.71 µM; in assay [3], 18.1 µM and > 10 µM; in assay [4], greater than 100 µM; in assay [5], 6.33 µM and 7.53 µM; in assay [6], 21.9 µM and > 10 µM. The TGI was 14 µM and > 10 µM in [7]; greater than 100 µM in assay [8]; 21.6 µM and > 10 µM in assay [9]; 13 µM and > 10 µM in assay [10].
Take `O=C1/C(=C/c2ccccc2)CN(C(=O)OCc2ccccc2)C/C1=C\c1ccccc1`: the TGI in assay [1] was greater than 46.4 µM; in [2], greater than 100 µM; in assay [3] it was 14.8 µM; in [4] it was 25.7 µM; in assay [5], greater than 31.6 µM; in [6] it was 32.8 µM. In addition, the TGI in assay [7] was 24 µM; in [8], 22.7 µM; in assay [9], 27.4 µM; in [10] it was 19.8 µM. In addition, the GI50 in assay [3] was 2.68 µM; in [9] it was 7.9 µM.
For the compound `COc1ccc(-c2c(-c3cc(OC)c4c(c3)OCO4)noc2N)cc1`, the GI50 in assay [1] is 0.0708 µM; in [2] it was 0.0422 µM; in assay [3] it was 0.0161 µM; in assay [4] it was 0.108 µM; in assay [5] it was 0.0339 µM; in [6], 0.872 µM. Moreover, the GI50 in [7] is 0.463 µM; in assay [8], 0.147 µM; in assay [9], 0.204 µM; in [10], 0.0167 µM. The TGI in assay [1] is greater than 100 µM; in assay [2] it was 47.1 µM; in assay [3] it was 0.827 µM; in [4], 39.8 µM; in [5], 58.5 µM; in assay [6] it was 33.4 µM. The TGI in assay [7] is 35.5 µM; in assay [8], greater than 93 µM; in assay [9] it was greater than 56.4 µM; in assay [10], 0.0627 µM.
Consider `Cn1c(=S)c2[nH]c(SCCN3CCCC3)nc2n(C)c1=O`, for which the TGI in [1], in [2], in assay [3], in assay [4], in assay [5] and in [6] was greater than 100 µM each time. Besides, the TGI in assay [7], in [8], in [9] and in assay [10] was greater than 100 µM in each case.
For `CCCSC1=NC2C(N(CC)C(=O)N2CC)N1/N=C/C=C/c1ccccc1[N+](=O)[O-]` (stereo not drawn), the GI50 was 3.74 µM in assay [1]; 4.21 µM in [2]; 3.55 µM in assay [3]; 3.98 µM in [4]; 2.26 µM in assay [5]; 6.96 µM in [6]. In addition, the GI50 was 3.86 µM in assay [7], 3.84 µM in assay [8], 6.72 µM in [9] and 1.8 µM in assay [10]. Besides, the TGI in [1] was greater than 100 µM; in [2], greater than 100 µM; in assay [3], greater than 100 µM; in [4], greater than 100 µM; in [5] it was 54.7 µM; in [6] it was greater than 100 µM. Besides, the TGI was greater than 100 µM in [7], greater than 100 µM in assay [8], greater than 100 µM in [9] and 8.32 µM in assay [10].
In the case of `CC(=O)OC1CC2C(C)(C)C(=O)C=CC2(C)C2CCC3(C)C(c4ccoc4)OC(=O)C4OC43C12C` (stereo not drawn), the TGI in assay [1] was greater than 100 µM; in [2] it was greater than 100 µM; in assay [3] it was 19.4 µM; in [4], greater than 100 µM; in assay [5] it was greater than 100 µM; in assay [6] it was greater than 100 µM. Further, the TGI in assay [7] is 15.2 µM; in [8], 17.2 µM; in [9], greater than 100 µM; in assay [10], 27.2 µM.
With `CCC1CCc2nc3sc(C(=O)Nc4ccccc4C)c(N)c3cc2C1` (stereo not drawn), the GI50 in [1] is 0.911 µM; in assay [2], 0.816 µM; in [3] it was 0.502 µM; in assay [4] it was 0.835 µM; in assay [5] it was 0.312 µM; in assay [6], 0.623 µM. The GI50 in assay [7] is 0.998 µM; in assay [8], 8.37 µM; in [9] it was 0.694 µM; in [10], 0.316 µM. In addition, the TGI in [1], in [2], in [3], in assay [4], in assay [5] and in assay [6] was greater than 100 µM throughout. The TGI is greater than 100 µM in assay [7], greater than 100 µM in [8], greater than 100 µM in [9] and 40.7 µM in assay [10].
